Assay [1] has as its target T1, human MCHR1 (Homo sapiens, UniProt Q99705).
T1 construct: The full-length cDNA for human MCHR1 is cloned from a human adult brain cDNA library; expressed in transfected cells; host or cells: AV12 cells previously transfected with Gα15; membranes
The experiment in a line: 125I-MCH competitive binding assay with clone 43 membranes. The note with it: Ki from IC50 by Cheng-Prusoff. As for the experimental part:
(§1) The full-length cDNA for human MCHR1 is cloned from a human adult brain cDNA library (Edge Biosystems, Cat. 38356) by standard polymerase chain reaction (PCR) methodology employing the following primers: sense, 5′-GCCACCATGGACCT GGAAGCCTCGCTGC-3′ (SEQ ID NO:1); anti-sense, 5′-[…]-3′ (SEQ ID NO:2). The PCR reaction is performed in a final volume of 50 μL containing 5 μL of a 10× stock solution of PCR buffer, 1 μL of 10 mM dNTP mixture (200 μM final), 2 μL of 50 mM Mg(SO4) (2 mM final), 0.5 μL of 20 μM solutions of each primer (0.2 μM final), 5 μL of template cDNA containing 0.5 ng DNA, 0.5 μL of Platinum Taq High Fidelity DNA polymerase (Gibco Life Technologies) and 36 μL of H2O. […]
(§2) In order to generate cell lines stably expressing MCHR1, subclone the insert into the Xba I and Not I sites of pcDNA(+)-3.1-neomycin (Invitrogen). […] The G418-resistant colonies are further selected for MCHR1 expression by measuring MCH-stimulated Ca^2+ transients with a fluorometric imaging plate reader (FLIPR, Molecular Devices). […]
Binding of compounds to MCHR1 is assessed in a competitive binding assay employing ^125I-MCH, compound and clone 43 membranes. […] Non-specific binding is assessed in the presence of 0.1 μM unlabeled MCH. Bound ^125I-MCH is determined by placing sealed plates in a Microbeta Trilux (Perkin Elmer Life and Analytical Sciences Inc.) and counting after a 12 h delay. […]

Assay [2] concerns the target T1, human MCHR1. The experiment in a line: Inhibition of MCH-stimulated GTPγ35S binding to clone 43 membranes (functional antagonism). The note with it: 10 nM MCH, Kb from IC50 by modified Cheng-Prusoff. The class given is biochemical. As for the experimental part: as §1, with “H2O. PCR amplification is performed on a Perkin Elmer 9600 thermocycler. Perform denaturation for 90 sec at 94° C., and repeat an amplification sequence consisting of 94° C. for 25 sec, 55° C. for 25 sec and 72° C. for […] 30 times, followed by a final elongation step at 72° C. for 10 min.” for “H2O.”
as §2
A general note: Binding of GTPγS marks nucleotide exchange on a G protein.

Assay [3] can be described thus: In vivo efficacy in diet-induced obese rats, oral gavage, body weight change over 3 days. The note with it: 10 mg/Kg orally once a day for 3 days, diet-induced obese male Long-Evans rats. As for the experimental part:
Vehicle consisted of 10% acacia and 0.15% saccharin in water.
House animals individually in a temperature regulated room (24° C.) with a reverse 12 hour light/dark cycle (dark 10:00/22:00). Make water and food (Teklad 95217, Harlan, WI) available ad libitum. Dose compounds orally once a day before onset of dark for 3 days. Measure daily food intake and body weight change for the 3 day period. The compound of Example 5 produced an average body weight reduction of about 11 grams @ 10 mg/Kg versus vehicle control.

The structures appear in SMILES notation. Structures can show the parent of a compound that is named as a salt.

T1 sequence (Q99705 whole entry): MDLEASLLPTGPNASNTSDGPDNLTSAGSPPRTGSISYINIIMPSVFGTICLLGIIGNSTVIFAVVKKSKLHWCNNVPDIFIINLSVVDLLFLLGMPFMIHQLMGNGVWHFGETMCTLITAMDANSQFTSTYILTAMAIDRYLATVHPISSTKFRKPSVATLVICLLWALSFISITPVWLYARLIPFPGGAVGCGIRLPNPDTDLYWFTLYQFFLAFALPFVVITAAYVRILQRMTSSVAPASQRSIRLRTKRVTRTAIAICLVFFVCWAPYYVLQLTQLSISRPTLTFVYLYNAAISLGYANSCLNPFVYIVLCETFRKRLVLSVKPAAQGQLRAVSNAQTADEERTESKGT

Compound `CN(C)[C@@H]1CCN(c2ccc(-n3ccc4cc(-c5ccc(OC6CC6)cc5)sc4c3=O)cn2)C1` [Example 55, 2-(4-Cyclopropoxy-phenyl)-6-[6-(R)-(3-dimethylamino-pyrrolidin-1-yl)-pyridin-3-yl]-6H-thieno[2,3-c]pyridin-7-one, hydrochloride] showed a Ki on human MCHR1 [1] of approximately 9 nM.

In the case of `CN(C)[C@@H]1CCN(c2ccc(N3CCc4cc(-c5ccc(Cl)cc5)sc4C3=O)cn2)C1.Cl` [Example 5, 2-(4-Chloro-phenyl)-6-[6-((R)-3-dimethylamino-pyrrolidin-1-yl)-pyridin-3-yl]-5,6-dihydro-4H-thieno[2,3-c]pyridin-7-one, hydrochloride], the Kb on human MCHR1 [2] is approximately 7 nM. For the same compound, the “average body weight reduction versus vehicle control” value in assay [3] was “about 11 grams”.

The term Ki denotes a measure of affinity in units of concentration, obtained from inhibition or displacement. Read a low Ki as higher affinity. The term Kb denotes the affinity of an antagonist, worked out from how it opposes an agonist.
